Reference: patent US20100298141A1, “SUBSTITUTED PYRIDINE N-OXIDE HERBICIDES” (E. I. DU PONT DE NEMOURS AND COMPANY, priority 2007, published 2010)

Assays:
bermudagrass = test: Test F preemergence test; type: in vivo, Cynodon dactylon; details: scale 0 to 100
Summary of the method: (§1)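 Test chemicals in a non-phytotoxic solvent mixture containing a surfactant were applied preemergence to sown seeds or postemergence to sugarcane plants. Treated plants and controls were held in a greenhouse for 14 to 21 days, then visually evaluated against controls.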

common ragweed = test: Test C pre-/postemergence test; type: in vivo, Ambrosia elation; details: Preemergence, 31 g ai/ha; scale 0 to 100 (0 no effect, 100 complete control)
Summary of the method: (§2)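 Seeds were planted and treated preemergence with test chemical in a non-phytotoxic solvent mixture containing surfactant. Postemergence applications of the same formulation went onto plants 2 to 18 cm tall (1- to 4-leaf stage). A dash marks no test result.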

Virginia dayflower = test: Test F preemergence test; type: in vivo, Commelina virginica; details: scale 0 to 100
Text: Seeds of plant species selected from bermudagrass (Cynodon dactylon), Surinam grass (Brachiaria decumbens), large crabgrass (Digitaria sanguinalis), green foxtail (Setaria viridis), goosegrass (Eleusine indica), johnsongrass (Sorghum halepense), kochia (Kochia scoparia), pitted morningglory (Ipomoea lacunosa), purple nutsedge (Cyperus rotundus), common ragweed (Ambrosia elation), mustard (Brassica nigra), guineagrass (Panicum maximum), […] (Paspalum dilatatum), barnyardgrass (Echinochloa crus-galli), southern sandbur (Cenchrus echinatus), common sowthistle (Sonchus oleraceous), prickly […] spinosa), Italian ryegrass (Lolium multiflorum), common purslane (Portulaca oleracea), broadleaf signalgrass (Brachiaria platyphylla), common groundsel (Senecio vulgaris), common chickweed (Stellaria media), Virginia dayflower (Commelina virginica), annual bluegrass (Poa annua), naked crabgrass (Digitaria nuda), […] cochinchinensis), quackgrass (Elytrigia repens), Canada horseweed (Conyza canadensis), field bindweed (Convolvulus arvensis), […] (Bidens bipinnata), common mallow (Malva sylvestris), Russian thistle (Salsola kali), and sugarcane (Saccharum officinarum) were planted and treated preemergence with test chemicals formulated in a non-phytotoxic solvent mixture which included a surfactant. At a different time, sugarcane was treated with postemergence applications of some of the test chemicals formulated in the same manner. Plants were approximately 3- to 4-leaf stage for the postemergence treatments. Treated plants and controls were maintained in a greenhouse for 14 to 21 days, after which time all species were compared to controls and visually evaluated. […] A dash (-) response means no test result.

green foxtail = test: Test C pre-/postemergence test; type: in vivo, Setaria viridis; details: Preemergence
Summary of the method: as §2

corn = test: Test A pre-/postemergence greenhouse test; type: in vivo, Zea mays; details: for Corn plant response rating: 0 to 100 scale
Summary of the method: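 Two application timings were run side by side in the greenhouse. Before emergence, compound went onto the soil surface of loam–sand pots as a directed spray; after emergence, plants at 2–10 cm and the one- to two-leaf stage were treated. Visual injury versus controls was rated at approximately day ten.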

broadleaf signalgrass = test: Test F preemergence test; type: in vivo, Brachiaria platyphylla; details: scale 0 to 100
Summary of the method: as §1

Surinam grass = test: Test F preemergence test; type: in vivo, Brachiaria decumbens; details: scale 0 to 100
Summary of the method: as §1

mustard = test: Test F preemergence test; type: in vivo, Brassica nigra; details: scale 0 to 100
Summary of the method: as §1

prickly sida = test: Test F preemergence test; type: in vivo, Sida spinosa; details: scale 0 to 100
Summary of the method: as §1

quackgrass = test: Test F preemergence test; type: in vivo, Elytrigia repens; details: scale 0 to 100
Summary of the method: as §1

kochia = test: Test F preemergence test; type: in vivo, Kochia scoparia; details: scale 0 to 100
Summary of the method: as §1

common mallow = test: Test F preemergence test; type: in vivo, Malva sylvestris; details: scale 0 to 100
Summary of the method: as §1

blackgrass = test: Test C pre-/postemergence test; type: in vivo, Alopecurus myosuroides
Summary of the method: as §2

dallisgrass = test: Test F preemergence test; type: in vivo, Paspalum dilatatum; details: scale 0 to 100
Summary of the method: as §1

Cc1cc[n+]([O-])c([S+]([O-])Cc2c(C(F)(F)F)nn(C)c2Cl)c1 (racemic) [Compound 20]
25: Plant response rating, Mallow (common mallow; Preemergence, 31 g ai/ha)
90: Black Mustard plant response rating (mustard; 62 g ai/ha, Preemergence)
65: Plant response rating, Signalgrass (broadleaf signalgrass; Preemergence, 31 g ai/ha) | Surinam Grass plant response rating (Surinam grass; 62 g ai/ha, Preemergence)
15: Plant response rating, Bermudagrass (bermudagrass; 8 g ai/ha, preemergence)
60: Dayflower plant response rating (Virginia dayflower; 62 g ai/ha, Preemergence) | Plant response rating, Corn (corn; Preemergence, 500 g ai/ha, 0 to 100 scale where 0 is no effect and 100 is complete control) | Plant response rating, Surinam Grass (Surinam grass; Preemergence, 31 g ai/ha) | Plant response rating, Black Mustard (mustard; Preemergence, 31 g ai/ha) | Prickly Sida plant response rating (prickly sida; 62 g ai/ha, Preemergence) | Quackgrass plant response rating (quackgrass; 62 g ai/ha, Preemergence) | Mallow plant response rating (common mallow; 62 g ai/ha, Preemergence)
20: Plant response rating, Bermudagrass (bermudagrass; Preemergence, 16 g ai/ha) | Plant response rating, Prickly Sida (prickly sida; Preemergence, 31 g ai/ha) | Plant response rating, Dallisgrass (dallisgrass; Preemergence, 31 g ai/ha)
30: Corn plant response rating (corn; Preemergence, 125 g ai/ha, 0 no effect, 100 complete control)
70: Corn plant response rating (corn; Postemergence, 500 g ai/ha, 0 is no effect, 100 is complete control) | Plant response rating, Blackgrass (blackgrass; Preemergence, 31 g ai/ha, scale 0 to 100 (0 no effect, 100 complete control))
50: Bermudagrass plant response rating (bermudagrass; 62 g ai/ha, Preemergence) | Plant response rating, Bermudagrass (bermudagrass; Preemergence, 31 g ai/ha) | Plant response rating, Signalgrass (broadleaf signalgrass; 8 g ai/ha, preemergence) | Plant response rating, Black Mustard (mustard; Preemergence, 16 g ai/ha) | Kochia plant response rating (kochia; 62 g ai/ha, Preemergence)
0: Plant response rating, Ragweed (common ragweed) | Plant response rating, Dayflower (Virginia dayflower; 8 g ai/ha, preemergence) | Plant response rating, Dayflower (Virginia dayflower; Preemergence, 16 g ai/ha) | Plant response rating, Dayflower (Virginia dayflower; Preemergence, 31 g ai/ha) | Corn plant response rating (corn; Postemergence, 125 g ai/ha, 0 is no effect, 100 is complete control) | Plant response rating, Surinam Grass (Surinam grass; 8 g ai/ha, preemergence) | Plant response rating, Surinam Grass (Surinam grass; 16 g ai/ha, preemergence) | Plant response rating, Black Mustard (mustard; 8 g ai/ha, preemergence) | Plant response rating, Prickly Sida (prickly sida; 8 g ai/ha, preemergence) | Plant response rating, Prickly Sida (prickly sida; Preemergence, 16 g ai/ha) | Plant response rating, Quackgrass (quackgrass; 8 g ai/ha, preemergence) | Plant response rating, Quackgrass (quackgrass; Preemergence, 16 g ai/ha) | Plant response rating, Quackgrass (quackgrass; Preemergence, 31 g ai/ha) | Plant response rating, Kochia (kochia; 8 g ai/ha, preemergence) | Plant response rating, Kochia (kochia; Preemergence, 16 g ai/ha) | Plant response rating, Kochia (kochia; Preemergence, 31 g ai/ha) | Plant response rating, Mallow (common mallow; 8 g ai/ha, preemergence) | Plant response rating, Mallow (common mallow; Preemergence, 16 g ai/ha) | Plant response rating, Dallisgrass (dallisgrass; 8 g ai/ha, preemergence) | Plant response rating, Dallisgrass (dallisgrass; Preemergence, 16 g ai/ha)
75: Signalgrass plant response rating (broadleaf signalgrass; 62 g ai/ha, Preemergence) | Dallisgrass plant response rating (dallisgrass; 62 g ai/ha, Preemergence)
100: Foxtail, Green plant response rating (green foxtail; 62 g ai/ha, scale 0 to 100) | Plant response rating (0 to 100), Foxtail, Green (green foxtail; 250 g ai/ha) | Plant response rating (0 to 100), Blackgrass (blackgrass; Preemergence, 250 g ai/ha) | Blackgrass plant response rating (blackgrass; preemergence, 125 g ai/ha, scale 0 (no effect) to 100 (complete control))
35: Plant response rating, Signalgrass (broadleaf signalgrass; 16 g ai/ha, preemergence)
98: Plant response rating, Foxtail, Green (green foxtail; 31 g ai/ha, scale 0 to 100 (0 no effect, 100 complete control)) | Blackgrass plant response rating (blackgrass; 62 g ai/ha, Preemergence, scale 0 to 100)
